Test results published in patent US20090143438A1, “Novel Pyridine Derivative Having Anti-Helicobacter Pylori Activity” (Arigen Pharmaceuticals, Inc., priority 2006, published 2009).
In brackets after ≈: the same amount, converted by molar mass.

Tests used:
H. pylori, ATCC 43504 = experiment: Antibacterial power test, Columbia agar, MIC; format: cell-based, Helicobacter pylori; conditions: Helicobacter pylori, ATCC43504, 72 h, 37° C., pH 7.0, 3 days, read on 4th day, read-out: MIC, in vitro anti-Helicobacter pylori activity
Description: An in vitro test was performed in a Columbia agar medium using a standard strain of H. pylori, ATCC 43504. […] Each of the test objects was dissolved in a 1% DMSO solution. Furthermore, as antibiotic control drugs, ampicillin from the penicillin family (control drug 1), gentamycin from the aminoglycoside family (control drug 2), tetracycline from the tetracycline family (control drug 3), and ofloxacin from the new quinolone family (control drug 4) were used.

[1] = system: Helicobacter pylori NCTC11637; conditions: standard strain NCTC11637; data from Table 6 of JP-A No. 7-69888; cited from earlier work
[2] = system: Helicobacter pylori NCTC11916; conditions: standard strain NCTC11916; data from Table 6 of JP-A No. 7-69888; cited from earlier work
H. pylori NCTC 11637 = experiment: In vitro MIC test in Columbia agar, standard strain; format: cell-based, Helicobacter pylori; conditions: Helicobacter pylori, NCTC11637, 72 h; standard strain NCTC 11637; 37° C., pH 7.0, 3 days
Description: (§1) An in vitro test was performed in a Columbia agar medium using standard strains of H. pylori, NCTC 11637 and 11916, clinical isolates PT#1045482, PT#1045483 and PT#1045484, and ofloxacin- and roxithromycin-resistant, clinical isolates TY2, 4 and 5. Each of the test objects was dissolved in a 1% DMSO solution. Furthermore, as antibiotic control drugs, roxithromycin from the macrolide family and ofloxacin from the new quinolone family were used. The strains were cultured at 37° C. and pH 7.0 for 3 days, and on the 4th day, the minimum inhibitory concentrations (MIC, μg/ml) were determined.

H. pylori NCTC 11916 = experiment: as above; format: cell-based, Helicobacter pylori; conditions: Helicobacter pylori, NCTC11916, 72 h; standard strain NCTC 11916; 37° C., pH 7.0, 3 days
Description: as §1

[3] = system: H. pylori clinical isolate PT#1045482; experiment: In vitro MIC test in Columbia agar, clinical isolate; format: cell-based; conditions: Helicobacter pylori, 72 h, 37° C., pH 7.0, 3 days
Description: as §1

[4] = system: H. pylori clinical isolate PT#1045483; experiment: as above; format: cell-based; conditions: Helicobacter pylori, 72 h, 37° C., pH 7.0, 3 days
Description: as §1

[5] = system: H. pylori clinical isolate PT#1045484; experiment: as above; format: cell-based; conditions: Helicobacter pylori, 72 h, 37° C., pH 7.0, 3 days
Description: as §1

[6] = system: H. pylori ofloxacin- and roxithromycin-resistant clinical isolate TY2; experiment: In vitro MIC test in Columbia agar, resistant clinical isolate; format: cell-based; conditions: Helicobacter pylori, 72 h; resistant strain TY2; 37° C., pH 7.0, 3 days
Description: as §1

[7] = system: H. pylori ofloxacin- and roxithromycin-resistant clinical isolate TY4; experiment: as above; format: cell-based; conditions: Helicobacter pylori, 72 h; resistant strain TY4; 37° C., pH 7.0, 3 days
Description: as §1

[8] = system: H. pylori ofloxacin- and roxithromycin-resistant clinical isolate TY5; experiment: as above; format: cell-based; conditions: Helicobacter pylori, 72 h; resistant strain TY5; 37° C., pH 7.0, 3 days
Description: as §1

[9] = system: Enterococcus faecalis (VRE, ATCC 51575); experiment: In vitro antibacterial test against various bacteria, MIC; format: cell-based; conditions: 37° C., 20 to 48 hours
Description: (§2) An in vitro antibacterial test for the compounds of Examples 1 to 6 against various bacteria was performed. As gram-negative bacteria, Escherichia coli (ATCC 10536, ATCC 25922), Klebsiella pneumonia (ATCC 10031), Proteus vulgaris (ATCC 13315), Pseudomonas aeruginosa (ATCC 9027), Salmonella typhimurium (ATCC 13311), and as gram-positive bacteria, Staphylococcus aureus, MRSA (ATCC 33591), Staphylococcus epidermidis (ATCC 12228), Streptococcus pneumonia (ATCC 6301), Mycobacterium ranae (ATCC 110) and Enterococcus faecalis (VRE, ATCC 51575) were used. The various bacteria were cultured at 37° C. for 20 to 48 hours by conventional methods, and the minimum inhibitory concentrations (MIC, μg/ml) were determined. Each of the test objects were dissolved in a 1% DMSO solution. Furthermore, as an antibiotic control drug, gentamycin (GEM) from the aminoglycoside family was used.

[10] = system: Escherichia coli (ATCC 10536); experiment: as above; format: cell-based; conditions: ATCC10536, 37° C., 20 to 48 hours, read-out: MIC
Description: as §2

[11] = system: Escherichia coli (ATCC 25922); experiment: as above; format: cell-based; conditions: ATCC25922, 37° C., 20 to 48 hours, read-out: MIC
Description: as §2

[12] = system: Klebsiella pneumonia (ATCC 10031); experiment: as above; format: cell-based; conditions: Klebsiella pneumoniae, ATCC10031, 37° C., 20 to 48 hours, read-out: MIC
Description: as §2

[13] = system: Mycobacterium ranae (ATCC 110); experiment: as above; format: cell-based; conditions: ATCC110, 37° C., 20 to 48 hours, read-out: MIC
Description: as §2

[14] = system: Proteus vulgaris (ATCC 13315); experiment: as above; format: cell-based; conditions: ATCC13315, 37° C., 20 to 48 hours, read-out: MIC
Description: as §2

[15] = system: Pseudomonas aeruginosa (ATCC 9027); experiment: as above; format: cell-based; conditions: ATCC9027, 37° C., 20 to 48 hours, read-out: MIC
Description: as §2

[16] = system: Salmonella typhimurium (ATCC 13311); experiment: as above; format: cell-based; conditions: Salmonella enterica, 37° C., 20 to 48 hours, read-out: MIC
Description: as §2

[17] = system: Staphylococcus aureus, MRSA (ATCC 33591); experiment: as above; format: cell-based; conditions: 37° C., 20 to 48 hours, read-out: MIC
Description: as §2

[18] = system: Staphylococcus epidermidis (ATCC 12228); experiment: as above; format: cell-based; conditions: ATCC12228, 37° C., 20 to 48 hours, read-out: MIC
Description: as §2

[19] = system: Streptococcus pneumonia (ATCC 6301); experiment: as above; format: cell-based; conditions: Streptococcus pneumoniae, ATCC6301, 37° C., 20 to 48 hours
Description: as §2

Cc1c(OCCO)ccnc1CSc1nc2ccccc2[nH]1 [Comparative Compound 1, 2-[{4-(2-hydroxyethoxy)-3-methylpyridin-2-yl}methylthio]-1H-benzimidazole, reference compound]
MIC (H. pylori, ATCC 43504): 10 µg/mL (≈ 31.7 µM)

COc1ccc2[nH]c([S+]([O-])Cc3ncc(C)c(OC)c3C)nc2c1 (stereo not drawn) [(a), 5-methoxy-2-(4-methoxy-3,5-dimethylpyridin-2-yl)methylsulfinyl-1H-benzimidazole]
MIC [1]: 50 µg/mL (≈ 145 µM)
MIC [2]: 50 µg/mL (≈ 145 µM)

COCCCOc1ccnc(C[S+]([O-])c2nc3ccccc3[nH]2)c1C.[Na] (stereo not drawn) [(e), 2-[4-(3-methoxypropoxy)-3-methylpyridin-2-yl]methylsulfinyl-1H-benzimidazole sodium salt]
MIC [1]: 0.8 µg/mL
MIC [2]: 1.56 µg/mL

COCCCOc1ccnc(CSc2nc3ccccc3[nH]2)c1C [(f), 2-[4-(3-methoxypropoxy)-3-methylpyridin-2-yl]methylthio-1H-benzimidazole]
MIC [1]: 0.8 µg/mL (≈ 2.33 µM)
MIC [2]: 1.56 µg/mL (≈ 4.54 µM)

Cc1c(OCC(F)(F)F)ccnc1C[S+]([O-])c1nc2ccccc2[nH]1 (stereo not drawn) [(c), 2-[3-methyl-4-(2,2,2-trifluoroethoxy)pyridine-2-yl]methylsulfinyl-1H-benzimidazole]
MIC [1]: 6.25 µg/mL (≈ 16.9 µM)
MIC [2]: 12.5 µg/mL (≈ 33.8 µM)

Cc1c(OCCCCCCCCCCO)ccnc1CSc1nc2ccccc2[nH]1 [Example 6, 2-[{4-(10-hydroxydecyloxy)-3-methylpyridin-2-yl}methylthio]-1H-benzimidazole]
MIC (H. pylori, ATCC 43504): 0.3 µg/mL (≈ 0.702 µM)
MIC (H. pylori NCTC 11637): 0.3 µg/mL (≈ 0.702 µM)
MIC (H. pylori NCTC 11916): 0.2 µg/mL (≈ 0.468 µM)
MIC [3]: 0.3 µg/mL (≈ 0.702 µM)
MIC [4]: 0.3 µg/mL (≈ 0.702 µM)
MIC [5]: 0.3 µg/mL (≈ 0.702 µM)
MIC [6]: 0.3 µg/mL (≈ 0.702 µM)
MIC [7]: 0.3 µg/mL (≈ 0.702 µM)
MIC [8]: 0.3 µg/mL (≈ 0.702 µM)
MIC [9]: > 100 µg/mL
MIC [10]: > 100 µg/mL
MIC [11]: > 100 µg/mL
MIC [12]: > 100 µg/mL
MIC [13]: > 100 µg/mL
MIC [14]: > 100 µg/mL
MIC [15]: > 100 µg/mL
MIC [16]: > 100 µg/mL
MIC [17]: > 100 µg/mL
MIC [18]: > 100 µg/mL
MIC [19]: > 100 µg/mL

CC1COc2c(N3CCN(C)CC3)c(F)cc3c(=O)c(C(=O)O)cn1c23 (stereo not drawn) [Control Drug 4 (Ofloxacin), ofloxacin, reference compound]
MIC (H. pylori, ATCC 43504): 1 µg/mL (≈ 2.77 µM)
MIC (H. pylori NCTC 11637): 0.8 µg/mL (≈ 2.21 µM)
MIC (H. pylori NCTC 11916): 0.8 µg/mL (≈ 2.21 µM)
MIC [3]: 0.8 µg/mL (≈ 2.21 µM)
MIC [4]: 0.8 µg/mL (≈ 2.21 µM)
MIC [5]: 0.4 µg/mL (≈ 1.11 µM)
MIC [6]: 2.5 µg/mL (≈ 6.92 µM)
MIC [7]: 25 µg/mL (≈ 69.2 µM)
MIC [8]: 2.5 µg/mL (≈ 6.92 µM)

Cc1c(OCC(F)(F)F)ccnc1CSc1nc2ccccc2[nH]1 [(d), 2-[3-methyl-4-(2,2,2-trifluoroethoxy)pyridine-2-yl]methylthio-1H-benzimidazole]
MIC [1]: 1.56 µg/mL (≈ 4.41 µM)
MIC [2]: 1.56 µg/mL (≈ 4.41 µM)

Cc1c(OCCCO)ccnc1CSc1nc2ccccc2[nH]1 [Comparative Compound 2, 2-[{4-(3-hydroxypropoxy)-3-methylpyridin-2-yl}methylthio]-1H-benzimidazole, reference compound]
MIC (H. pylori, ATCC 43504): 3 µg/mL (≈ 9.11 µM)

Cc1c(OCCCCCCCO)ccnc1CSc1nc2ccccc2[nH]1 [Example 3, 2-[{4-(7-hydroxyheptyloxy)-3-methylpyridin-2-yl}methylthio]-1H-benzimidazole]
MIC (H. pylori, ATCC 43504): 0.1 µg/mL (≈ 0.259 µM)
MIC (H. pylori NCTC 11637): 0.1 µg/mL (≈ 0.259 µM)
MIC (H. pylori NCTC 11916): 0.1 µg/mL (≈ 0.259 µM)
MIC [3]: 0.1 µg/mL (≈ 0.259 µM)
MIC [4]: 0.1 µg/mL (≈ 0.259 µM)
MIC [5]: 0.1 µg/mL (≈ 0.259 µM)
MIC [6]: 0.1 µg/mL (≈ 0.259 µM)
MIC [7]: 0.1 µg/mL (≈ 0.259 µM)
MIC [8]: 0.1 µg/mL (≈ 0.259 µM)
MIC [9]: > 100 µg/mL
MIC [10]: > 100 µg/mL
MIC [11]: > 100 µg/mL
MIC [12]: > 100 µg/mL
MIC [13]: > 100 µg/mL
MIC [14]: > 100 µg/mL
MIC [15]: > 100 µg/mL
MIC [16]: > 100 µg/mL
MIC [17]: > 100 µg/mL
MIC [18]: > 100 µg/mL
MIC [19]: > 100 µg/mL

COc1ccc2[nH]c(SCc3ncc(C)c(OC)c3C)nc2c1 [(b), 5-methoxy-2-(4-methoxy-3,5-dimethylpyridin-2-yl)methylthio-1H-benzimidazole]
MIC [1]: 12.5 µg/mL (≈ 37.9 µM)
MIC [2]: 12.5 µg/mL (≈ 37.9 µM)

CC1(C)S[C@@H]2[C@H](NC(=O)[C@H](N)c3ccccc3)C(=O)N2[C@H]1C(=O)O [Control Drug 1 (Ampicillin), ampicillin, reference compound]
MIC (H. pylori, ATCC 43504): 0.1 µg/mL (≈ 0.286 µM)

CC[C@H]1OC(=O)[C@H](C)[C@@H](O[C@H]2C[C@@](C)(OC)[C@@H](O)[C@H](C)O2)[C@H](C)[C@@H](O[C@@H]2O[C@H](C)C[C@H](N(C)C)[C@H]2O)[C@](C)(O)C[C@@H](C)/C(=N\OCOCCOC)[C@H](C)[C@@H](O)[C@]1(C)O [RXM, roxithromycin, reference compound]
MIC (H. pylori NCTC 11637): 0.2 µg/mL (≈ 0.239 µM)
MIC (H. pylori NCTC 11916): 0.1 µg/mL (≈ 0.119 µM)
MIC [3]: 0.4 µg/mL (≈ 0.478 µM)
MIC [4]: 0.2 µg/mL (≈ 0.239 µM)
MIC [5]: 0.2 µg/mL (≈ 0.239 µM)
MIC [6]: > 100 µg/mL
MIC [7]: > 100 µg/mL
MIC [8]: 3.5 µg/mL (≈ 4.18 µM)
MIC [1]: 0.2 µg/mL (≈ 0.239 µM)
MIC [2]: 0.1 µg/mL (≈ 0.119 µM)

CN(C)[C@@H]1C(O)=C(C(N)=O)C(=O)[C@@]2(O)C(O)=C3C(=O)c4c(O)cccc4[C@@](C)(O)[C@H]3C[C@@H]12 [Control Drug 3 (Tetracycline), tetracycline, reference compound]
MIC (H. pylori, ATCC 43504): 0.3 µg/mL (≈ 0.675 µM)
